According to publication PMC4640066 (Nature Communications, 2015):

Tests used:
α/β-tubulin = target: T1, α/β-tubulin (Sus scrofa, UniProt P02550+P02554); test: Tryptophan-based drug-binding assay, α/β-tubulin; parameters: species or system porcine; conditions: tryptophan fluorescence decrease; 1 μM protein; mean±s.d., three independent experiments
T1 construct: α/β-Tubulin was purified from porcine brain; from tissue; host or cells: porcine brain
Experimental: γ-TuSC was purified as described. Briefly, γ-TuSC was expressed in HighFive cells and purified by sequential steps of Ni-NTA (Macherei-Nagel) purification, MonoQ column purification (GE Healthcare) and size exclusion (Superdex 200 column, GE Healthcare)[14]. α/β-Tubulin was purified from porcine brain through four cycles of polymerization and depolymerization using 1 M PIPES buffer (1 M PIPES-KOH, 1 mM EGTA, 1 mM MgCl2, pH 6.8) for effective removal of MT-associated proteins.
(§1) Gel filtration buffer for γ-tubulin purification (50 mM MES pH 6.6, 500 mM KCl, 5 mM MgCl2, 1 mM EGTA and 1 mM DTT) supplemented with 10% of glycerol was used as an assay buffer. γ-tubulin and α/β-tubulin were diluted in this assay buffer to reach a final protein concentration of 1 μM. A final concentration of 10 μM or 1 mM GTP was added to the samples. Proteins were incubated for 30 min with compounds (final DMSO concentration was 1%; 2% for AG1 and gatastatin). […] Dissociation constants were calculated from fitting curves of decreasing fluorescence (ΔFL) using the GraphPad Prizm software.

human γ-tubulin [1] = target: T2, human γ-tubulin (Homo sapiens, UniProt P23258); test: Tryptophan-based drug-binding assay, γ-tubulin; conditions: for Ratio of Kd[α/β-tubulin]/Kd[γ-tubulin]: selectivity for γ-tubulin over α/β-tubulin; for Kd: tryptophan fluorescence decrease, 1 μM protein, mean±s.d., three independent experiments
T2 construct: myc (C); 6His (C); made in house; host or cells: Sf21 insect cells (baculovirus)
T2 sequence (P23258 whole entry): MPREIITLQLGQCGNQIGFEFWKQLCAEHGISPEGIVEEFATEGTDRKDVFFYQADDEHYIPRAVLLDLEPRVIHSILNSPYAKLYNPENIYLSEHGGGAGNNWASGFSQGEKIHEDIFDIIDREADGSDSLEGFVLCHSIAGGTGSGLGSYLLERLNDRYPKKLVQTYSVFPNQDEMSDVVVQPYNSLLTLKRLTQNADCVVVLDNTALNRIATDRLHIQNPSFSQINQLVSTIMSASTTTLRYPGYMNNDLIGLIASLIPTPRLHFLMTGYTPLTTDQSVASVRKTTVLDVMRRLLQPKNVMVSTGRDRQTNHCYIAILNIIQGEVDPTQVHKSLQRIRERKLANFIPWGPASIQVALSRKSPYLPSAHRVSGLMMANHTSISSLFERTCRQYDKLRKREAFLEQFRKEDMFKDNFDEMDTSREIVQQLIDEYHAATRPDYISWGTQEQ
Experimental: In brief, 0.7 × 10^6 cells ml^−1 were infected with the γ-tubulin baculovirus. After 48 h, cells were collected by centrifugation at […] for 10 min and flash-frozen in liquid nitrogen and stored at −80 °C. Purification was carried out as described with slight modifications. […] Imidazole (final 10 mM) was added and the lysate was centrifuged again at 192,800g for 30 min at 4 °C. […] Ni-NTA Agarose was then washed twice with wash buffer 1 (lysis buffer containing 25 mM imidazole) and wash buffer 2 (50 mM MES pH 6.6, 500 mM KCl, 5 mM MgCl2, 10% glycerol, 10 μM GTP and 1 mM DTT) containing 25 mM imidazole. γ-Tubulin was eluted with wash buffer 2 containing 200 mM imidazole.
Monomeric γ-tubulin was prepared using a size exclusion column HiLoad 16/60 Superdex 200 pre-equilibrated with gel filtration buffer (50 mM MES pH 6.6, 500 mM KCl, 5 mM MgCl2, 1 mM EGTA, 10 μM GTP and 1 mM DTT). The peak fractions representing monomeric γ-tubulin were identified by A280 and confirmed using SDS–PAGE. Protein was concentrated using a Vivaspin concentrator (Sartorius) and supplemented with 10% glycerol, following snap-freezing in liquid nitrogen and storage at −80 °C.
as §1

human γ-tubulin [2] = target: T2, human γ-tubulin; test: GTP binding to recombinant γ-tubulin (UV crosslinking); conditions: 70 nM γ-tubulin, α-[32P]-GTP
Experimental: Supplementary Figure 2. Binding of GTP and GCP4 to recombinant human γ-tubulin
(a) GTP binding to γ-tubulin. 70 nM of γ-tubulin was mixed with indicated concentrations of α-[32P]-GTP, and cross-linked by UV irradiation. After separation of crosslinked γ-tubulin and unbound α-[32P]-GTP, radioactivity was detected with a phosphorimager. Band intensities were quantified with ImageJ. The Kd (121.1 nM) was calculated using GraphPad Prizm software. (b) Purified human γ-tubulin and GCP4 interaction was detected by gel filtration and SDS-PAGE. Equal volumes of γ-tubulin (1.5 µM) and GCP4 (4 µM), γ-tubulin (1.5 µM) and buffer, or GCP4 (4 µM) and buffer were mixed and incubated for 30 min at 20 °C. Proteins were separated by size exclusion column Superdex 200 10/300 GL pre-equilibrated with gel filtration buffer (50 mM MES pH6.6, 500 mM KCl, 5 mM MgSO4, 1 mM EGTA, 1 mM DTT, 10 µM GTP).
γ-Tubulin alone and GCP4 alone were eluted at retention times of 27 min and 24 min, respectively. The […]
GCP4 and γ-tubulin in these fractions were confirmed by SDS-PAGE and silver staining.
(1 picture or pasted object on this page, not shown here)

human γ-tubulin [3] = target: T2, human γ-tubulin; test: Inhibition of GTP binding of γ-tubulin (α-[32P]-GTP crosslinking assay); conditions: 60 μM compound; 70 nM γ-tubulin, 100 nM α-[32P]-GTP; mean±s.d.
Experimental: For analysis of the effect of drugs on GTP binding of γ-tubulin, 70 nM of purified human γ-tubulin in GTP-binding buffer (50 mM MES, 5 mM MgCl2, 1 mM EGTA, pH 6.6) was incubated with or without compounds for 15 min at 20 °C. A final concentration of 100 nM of α-[^32P]-GTP was added and incubated at 20 °C for 30 min. After incubation, bound α-[^32P]-GTP was crosslinked to γ-tubulin for 60 s by illumination with a ultraviolet lamp using CL-1000 Ultraviolet Crosslinker. Protein with the crosslinked GTP was separated from unbound nucleotide by TCA precipitation and SDS–PAGE, and ^32P labelling was measured using a Typhoon FLA-7000 (General Electronic Company). Band intensities were quantified with the ImageJ software.

[4] = system: γ-tubulin-dependent, RanQ69L-stimulated aster formation; test: RanQ69L-stimulated aster formation in M-phase Xenopus egg extracts; assay type: biochemical
Experimental: (§2) Cytostatic factor (CSF)-arrested M phase Xenopus egg extracts (CSF extracts) were prepared. Briefly, unfertilized eggs were crushed by 10,700g centrifugation for 20 min. M phase extracts were mixed with 0.5 μM Cy3-labelled α/β-tubulin and various concentrations of compounds. After incubation for 30 min on ice, 15 μM RanQ69L, 200 sperm nuclei per μl or 5% DMSO were added and incubated for 30 min on ice. After incubation for 20 min at 20 °C (for the samples with sperm nuclei, the incubation time was 30 min), 1.5 μl sample was fixed with 1.5 μl fix solution (0.3 volume of 37% formaldehyde, 0.6 volume of 80% glycerol and 0.1 vol of 10 × MMR solution (50 mM HEPES, pH 7.8, 1 M NaCl, 20 mM KCl, 10 mM MgCl2, 20 mM CaCl2 and 1 mM EDTA)), followed by the squash fix.
(§3) Images were acquired using a microscope (Axiovert 200 M; Carl Zeiss Inc.) equipped with a plan-Apochromat × 63 NA 1.3 oil objective lens (Carl Zeiss Inc.), a Cy3 emission filter and a Cascade:1 K (Photometrics Inc.) camera, and the AxioVision software (Carl Zeiss Inc.). The aster size and fluorescence intensity were quantified using a macro written in MATLAB[41].

[5] = system: DMSO-stimulated, γ-tubulin-independent aster formation; test: DMSO-stimulated aster formation in M-phase Xenopus egg extracts; assay type: biochemical; conditions: M-phase-arrested Xenopus egg extracts, 5% DMSO, 20 min at 20 °C
Experimental: as §2, §3

[6] = system: HeLa cells expressing EB3-EGFP (interphase); test: EB3-EGFP signal tracking, interphase cells; assay type: cell-based, human; conditions: 15 min; for Track length / Track lifetime / Velocity: interphase HeLa EB3-EGFP, mean±s.d.; for Track numbers: interphase, from a 144-μm^2 area inside the cell
Experimental: A HeLa ‘Kyoto' cell line stably expressing EB3-EGFP (a kind gift from Dr J. Ellenberg) was maintained in DMEM+GlutaMAX (Gibco) supplemented with 10% FBS, 2 mM L-glutamine, 100 U ml^−1 penicillin, 100 μg ml^−1 streptomycin, 1 mM sodium pyruvate and 0.5 mg ml^−1 G418. Cells were seeded into eight-well Lab-Tek chambers (Nunc, Rochester, NY) for 24-h prior imaging. For imaging, the medium was exchanged to Live Cell Imaging Solution (Molecular Probes Life Technologies) supplemented as described above and containing various concentrations of AG1 or gatastatin. Interphase cells were incubated with drugs for 15 min and mitotic cells were treated as described in Fig. 4c. Then, EB3 tracks were observed under a PerkinElmer UltraVIEW ERS Spinning Disk microscope (Software: UltraVIEW ERS Imaging Suite) equipped with a Plan-APOCHROMAT × 100/1.4 Oil DIC objective, a Confocal Scanner Unit (Yokogawa CSU 22), a Hamamatsu EM CCD camera (C9100-50) and a 488-nm Argon laser at 37 °C, and time-lapse sequences were performed for 60 s with a 400-ms interval. Automatic analysis of EB3-EGFP signal tracks was performed with ImageJ (http://imagej.nih.gov/ij/) and Matlab (Mathworks) as described.

HeLa cells = test: Analysis of interphase MT network; assay type: cell-based, human; conditions: 30 μM, 2.5 h
Experimental: HeLa cells were cultured in DMEM containing 10% FBS in a humidified atmosphere containing 5% CO2. After treatment with each compound for 2.5 h (interphase MT network) or 5 h (mitotic spindle), the cells were immediately fixed with cold MeOH (−20 °C). After blocking with PBS containing 0.5% bovine serum albumin, cells were incubated with anti-α-tubulin antibodies (1:500 dilution, Santa Cruz, Cat# sc-32293) to observe interphase cells, or with anti-BubR1 (1:250 dilution, BD Bioscience, Cat# 612502) and anti-α-tubulin (1:250 dilution, MBL, Cat# PM054) antibodies to observe mitotic spindle. After staining with Alexa^488-conjugated anti-mouse IgG (1:2,000 dilution, Invitrogen, Cat#A11001) and Alexa568-conjugated anti-rabbit IgG (1:2000 dilution, Invitrogen, Cat#A11011), cells were washed four times with PBS and mounted with PBS containing 0.1 μg ml^−1 DAPI. MTs and BubR1 signals were observed under a Leica LAS AF 6000 fluorescence microscope (Leica Microsystems) or an LSM 700 laser-scanning confocal microscope (Zeiss).

T1 sequence (P02554 whole entry): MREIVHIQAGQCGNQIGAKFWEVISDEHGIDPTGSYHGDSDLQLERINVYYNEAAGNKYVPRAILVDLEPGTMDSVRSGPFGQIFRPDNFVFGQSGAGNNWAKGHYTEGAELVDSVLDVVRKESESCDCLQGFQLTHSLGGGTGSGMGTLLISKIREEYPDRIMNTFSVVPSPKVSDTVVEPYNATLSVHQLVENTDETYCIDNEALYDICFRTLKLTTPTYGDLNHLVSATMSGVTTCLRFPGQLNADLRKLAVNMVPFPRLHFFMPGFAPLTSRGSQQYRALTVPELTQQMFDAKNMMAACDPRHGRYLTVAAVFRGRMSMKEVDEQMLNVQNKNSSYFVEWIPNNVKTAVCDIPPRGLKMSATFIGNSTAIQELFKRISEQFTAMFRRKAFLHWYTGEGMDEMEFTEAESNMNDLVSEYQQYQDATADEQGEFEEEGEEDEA
T1 sequence (P02550 whole entry): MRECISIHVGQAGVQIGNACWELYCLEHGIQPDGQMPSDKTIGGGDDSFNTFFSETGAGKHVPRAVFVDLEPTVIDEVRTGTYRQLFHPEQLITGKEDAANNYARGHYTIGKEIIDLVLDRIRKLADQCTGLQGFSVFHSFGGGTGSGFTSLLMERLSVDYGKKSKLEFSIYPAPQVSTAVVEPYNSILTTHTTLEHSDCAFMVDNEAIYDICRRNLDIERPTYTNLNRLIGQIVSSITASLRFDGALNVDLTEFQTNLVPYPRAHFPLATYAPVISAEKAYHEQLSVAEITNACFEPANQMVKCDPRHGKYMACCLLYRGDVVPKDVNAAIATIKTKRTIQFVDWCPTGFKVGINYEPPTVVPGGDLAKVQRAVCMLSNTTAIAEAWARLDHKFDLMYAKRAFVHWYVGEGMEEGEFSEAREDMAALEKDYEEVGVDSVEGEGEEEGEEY

COC(=O)Nc1nc2ccc(C(=O)c3cccs3)cc2[nH]1 [Nocodazole]
Kd (α/β-tubulin): 1.8 ± 0.6 µM | Ratio of Kd[α/β-tubulin]/Kd[γ-tubulin] (human γ-tubulin [1]): 0.03 | Kd (human γ-tubulin [1]): 54.9 ± 19 µM

Nc1nc2c(ncn2[C@@H]2O[C@H](COP(=O)(O)OP(=O)(O)OP(=O)(O)O)[C@@H](O)[C@H]2O)c(=O)[nH]1 [GTP]
Kd (human γ-tubulin [2]): 0.121 µM

COc1cc2occ(-c3cc(OC)c4c(c3OC)OCO4)c(=O)c2cc1OC [AG1, glaziovianin A, reference compound]
Kd (α/β-tubulin): 51.9 ± 36.4 µM | Ratio of Kd[α/β-tubulin]/Kd[γ-tubulin] (human γ-tubulin [1]): 0.61 | Kd (human γ-tubulin [1]): 85.3 ± 22.8 µM | GTP binding (control %) (human γ-tubulin [3]): 93.7±11.7% | IC50 ([4]; M-phase-arrested Xenopus egg extracts, 15 μM RanQ69L, 20 min at 20 °C): 0.44 µM | IC50[DMSO-aster]/IC50[RanQ69L-aster] ([4]; ratio of IC50 values): 3.14 | IC50 [5]: 1.37 µM | Track length ([6]; 1 μM): 0.73±0.09 μm | Track lifetime ([6]; 1 μM): 3.30 ± 0.57 s | Velocity ([6]; 1 μM): 9.59±1.01 μm min^−1 | Track numbers ([6]; 1 μM): 106±30 | Track length ([6]; 3 μM): 0.43±0.07 μm | Track lifetime ([6]; 3 μM): 2.20 ± 0.67 s | Velocity ([6]; 3 μM): 7.33±1.23 μm min^−1 | Track numbers ([6]; 3 μM): 110±42 | Effect on interphase MT network (HeLa cells): caused partial depolymerization of interphase MT network

CC(C)(C)c1[nH]cnc1/C=c1\[nH]c(=O)/c(=C/c2ccccc2)[nH]c1=O [Plinabulin]
Kd (α/β-tubulin): 0.5 ± 0.1 µM | Ratio of Kd[α/β-tubulin]/Kd[γ-tubulin] (human γ-tubulin [1]): 0.01 | Ratio of Kd[α/β-tubulin]/Kd[γ-tubulin] (human γ-tubulin [1]; listed as plinabulin): < 0.05 | Kd (human γ-tubulin [1]): 83.3 ± 18.5 µM

COc1ccc(/C=c2\[nH]c(=O)/c(=C/c3cccc(C(=O)c4ccccc4)c3)[nH]c2=O)cc1 [KPU-406]
Kd (α/β-tubulin): 26.3 ± 2 µM | Ratio of Kd[α/β-tubulin]/Kd[γ-tubulin] (human γ-tubulin [1]): 0.57 | Kd (human γ-tubulin [1]): 46.1 ± 27.6 µM
